In US8080569B2, “Imidazo[2,1-b]thiazoles and their use as pharmaceuticals” (Sanofi-Aventis, priority 2006, dated 2011) one finds EC50 data, which are given here for 5 compounds.

In this assay the test system is eNOS promoter. Kind of assay: Activation of eNOS transcription (eNOS promoter-luciferase reporter in human endothelial cell line). The format is cell-based. The conditions noted are these: human endothelial cell line stably transfected with eNOS promoter-luciferase construct, 18 h incubation, EC50 determined graphically; read-out: EC50 values of transcription induction ratios (TIR). The method, then: A) Activation of eNOS Transcription
Activation of eNOS transcription was measured as described in detail by Li et al., “Activation of protein kinase C alpha and/or epsilon enhances transcription of the human endothelial nitric oxide synthase gene”, Mol. Pharmacol. 53 (1998), 630-637. Briefly, a 3.5 kB long fragment 5′ of the starting codon of the eNOS gene was cloned, sequenced and cloned in firefly luciferase expression plasmids to monitor activation of the eNOS promoter by reporter gene activity. A human endothelial cell line stable transfected and expressing this promoter-reporter construct was used for compound testing. Cells were incubated for 18 h with the compounds.
All compounds were dissolved in sterile dimethyl sulfoxide (DMSO). A final concentration of 0.5% DMSO in complete medium was allowed. Induction of reporter gene expression in these cells was measured using a standard luciferase assay system (Promega, Cat. No. E150) according to the manufacturer's instructions. Luciferase induction in cells incubated with compounds were compared to those incubated with solvent alone. The ratio of both activities (transcription induction ratio, TIR) was plotted as a function of compound concentration. Typically, TIR values started at low concentrations at a ratio of 1, indicating no compound effect, and extended up to a maximum TIR value TIR(max) which indicates the increase of the eNOS transcription. EC50 values of transcription induction ratios as a function of compound concentration were determined graphically.
(In general: A reporter such as luciferase makes a cellular process visible.)

Take `CCOC(=O)c1sc2nc(-c3ccc(F)cc3)cn2c1C` [Example 1, 6-(4-Fluoro-phenyl)-3-methyl-imidazo[2,1-b]thiazole-2-carboxylic acid ethyl ester]: the EC50 was below 500 nM. As to `CCOC(=O)c1sc2nc(-c3cccc(Cl)c3)cn2c1C` [Example 2, 6-(3-Chloro-phenyl)-3-methyl-imidazo[2,1-b]thiazole-2-carboxylic acid ethyl ester], the EC50 was below 500 nM.

On to `CCOC(=O)c1sc2nc(-c3ccc(C)cc3)cn2c1C` [Example 3, 3-Methyl-6-p-tolyl-imidazo[2,1-b]thiazole-2-carboxylic acid ethyl ester], for which the EC50 was below 500 nM. With `Cc1c(C(=O)NC(C)(C)C)sc2nc(-c3ccc(F)cc3)cn12` [Example 10, 6-(4-Fluoro-phenyl)-3-methyl-imidazo[2,1-b]thiazole-2-carboxylic acid tert-butylamide] the figure was below 500 nM. On to `Fc1ccc(-c2cn3cc(Br)sc3n2)cc1` [Example 22, 2-Bromo-6-(4-fluoro-phenyl)-imidazo[2,1-b]thiazole], for which the EC50 is below 500 nM.
